Experimental data from patent US20100099561A1, “HETEROBICYCLIC ALKYLTHIO-BRIDGED ISOXAZOLINES” (E.I. DU PONT DE NEMOURS AND COMPANY, priority 2008, published 2010).

Legend:
Format in all cases: in vivo
[1] = tested on: catchweed bedstraw (Galium aparine); experiment: Test B preemergence, catchweed bedstraw; settings: scale 0 to 100
Description: (§1) Seeds of plant species selected from blackgrass (Alopecurus myosuroides), downy bromegrass (Bromus tectorum), green foxtail (Setaria viridis), Italian ryegrass (Lolium multiflorum), wheat (Triticum aestivum), wild oat (Avena fatua), catchweed bedstraw (Galium aparine), bermudagrass (Cynodon dactylon), Surinam grass (Brachiaria decumbens), cocklebur (Xanthium strumarium), corn (Zea mays), large crabgrass (Digitaria sanguinalis), woolly cupgrass (Eriochloa villosa), giant foxtail (Setaria faberii), goosegrass (Eleusine indica), johnsongrass (Sorghum halepense), kochia (Kochia scoparia), lambsquarters (Chenopodium album), morningglory (Ipomoea coccinea), nightshade (eastern black nightshade, Solanum ptycanthum), yellow nutsedge (Cyperus esculentus), pigweed (Amaranthus retroflexus), ragweed (common ragweed, Ambrosia elatior), soybean (Glycine max), sunflower (common oilseed sunflower, Helianthus annuus), Russian thistle (Salsola kali), and velvetleaf (Abutilon theophrasti) were planted into a blend of loam soil and sand and treated preemergence with test compounds formulated in a non-phytotoxic solvent mixture which included a surfactant. Treated plants and controls were maintained in a greenhouse for 13 to 15 days, after which time all species were compared to controls and visually evaluated. Plant response ratings, summarized in Table B, are based on a scale of 0 to 100 where 0 is no effect and 100 is complete control. A dash (-) response means no test result.

[2] = tested on: spring wheat (Triticum aestivum); experiment: Test C preemergence, spring wheat; settings: 21 days, scale 0 to 100
Description: (§2) Seeds of plant species selected from annual bluegrass (Poa annua), blackgrass (Alopecurus myosuroides), canarygrass (Phalaris minor), gallium, (catchweed bedstraw, Galium aparine), chickweed (Stellaria media), downy bromegrass (Bromus tectorum), field poppy (Papaver rhoeas), field violet (Viola arvensis), green foxtail (Setaria viridis), deadnettle (henbit deadnettle, Lamium amplexicaule), Italian ryegrass (Lolium multiflorum), kochia (Kochia scoparia), lambsquarters (Chenopodium album), oilseed rape (Brassica napus), pigweed (Amaranthus retroflexus), Russian thistle (Salsola kali), spring barley (Hordeum vulgare), spring wheat (Triticum aestivum), wild buckwheat (Polygonum convolvulus), wild mustard (Sinapis arvensis), wild oat (Avena fatua), wild radish (Raphanus raphanistrum), windgrass (Apera spica-venti), winter barley (Hordeum vulgare), and winter wheat (Triticum aestivum) were planted and treated preemergence with test chemicals formulated in a non-phytotoxic solvent mixture which included a surfactant.
(§3) Treated plants and controls were maintained in a controlled growth environment for 21 days after which time all species were compared to controls and visually evaluated. Plant response ratings, summarized in Table C, are based on a scale of 0 to 100 where 0 is no effect and 100 is complete control. A dash (-) response means no test result.

[3] = tested on: spring barley (Hordeum vulgare); experiment: Test C preemergence, spring barley; settings: 21 days, scale 0 to 100
Description: as §2, §3

[4] = tested on: Surinam grass (Brachiaria decumbens); experiment: Test B preemergence, Surinam grass; settings: Preemergence, scale 0 to 100
Description: as §1

[5] = tested on: ragweed (common ragweed, Ambrosia elatior); experiment: Test B preemergence, ragweed; settings: scale 0 to 100
Description: as §1

[6] = tested on: velvetleaf (Abutilon theophrasti); experiment: Test A preemergence, velvetleaf; settings: 0 to 100 scale (0 no effect, 100 complete control)
Outline: (§4)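 Sow seeds in loam–sand blend; spray soil directly (pre) and treat emerged one- to two-leaf plants 2–10 cm tall (post) with compound in surfactant-containing non-phytotoxic solvent. Keep in greenhouse about ten days. Score injury visually against controls from 0 to 100.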

[7] = tested on: canarygrass (Phalaris minor); experiment: Test C preemergence, canarygrass; settings: 21 days, scale 0 to 100
Description: as §2, §3

[8] = tested on: blackgrass (Alopecurus myosuroides); experiment: Test C preemergence, blackgrass; settings: 21 days, scale 0 to 100
Description: as §2, §3

[9] = tested on: barnyardgrass (Echinochloa crus-galli); experiment: Test A preemergence, barnyardgrass; settings: 0 to 100 scale (0 no effect, 100 complete control)
Outline: as §4

[10] = tested on: windgrass (Apera spica-venti); experiment: Test C preemergence, windgrass; settings: 21 days, scale 0 to 100
Description: as §2, §3

[11] = tested on: winter wheat (Triticum aestivum); experiment: Test C preemergence, winter wheat; settings: 21 days, scale 0 to 100
Description: as §2, §3

[12] = tested on: sunflower (common oilseed sunflower, Helianthus annuus); experiment: Test B preemergence, sunflower; settings: Preemergence, scale 0 to 100
Description: as §1

[13] = tested on: lambsquarters (Chenopodium album); experiment: Test C preemergence, lambsquarters; settings: 21 days, scale 0 to 100
Description: as §2, §3

[14] = tested on: Russian thistle (Salsola kali); experiment: Test C preemergence, Russian thistle; settings: 21 days, scale 0 to 100
Description: as §2, §3

[15] = tested on: Russian thistle (Salsola kali); experiment: Test B preemergence, Russian thistle; settings: scale 0 to 100
Description: as §1

CC1(C)CC(S(=O)(=O)Cc2c(C(F)(F)F)nc3n(c2=O)CCS3)=NO1 [Compound 6]
Plant response rating, Galium ([1]; 16 g ai/ha): 0 | Plant response rating, Galium ([1]; 31 g ai/ha): 50 | Plant response rating, Galium ([1]; 62 g ai/ha): 50 | Plant response rating, Galium ([1]; 125 g ai/ha): 100 | Plant response rating, Wheat, Spring ([2]; 31 g ai/ha): 0 | Plant response rating, Wheat, Spring ([2]; 62 g ai/ha): 0 | Plant response rating, Wheat, Spring ([2]; 125 g ai/ha): 0 | Plant response rating, Wheat, Spring ([2]; 250 g ai/ha): 15 | Plant response rating, Barley, Spring ([3]; 31 g ai/ha): 20 | Plant response rating, Barley, Spring ([3]; 62 g ai/ha): 20 | Plant response rating, Barley, Spring ([3]; 125 g ai/ha): 20 | Plant response rating, Barley, Spring ([3]; 250 g ai/ha): 20 | Plant response rating, Surinam Grass ([4]; 16 g ai/ha): 20 | Plant response rating, Surinam Grass ([4]; 31 g ai/ha): 60 | Plant response rating, Surinam Grass ([4]; 62 g ai/ha): 98 | Plant response rating, Surinam Grass ([4]; 125 g ai/ha): 100 | Plant response rating, Ragweed ([5]; 16 g ai/ha): 0 | Plant response rating, Ragweed ([5]; 31 g ai/ha): 0 | Plant response rating, Ragweed ([5]; 62 g ai/ha): 25 | Plant response rating, Ragweed ([5]; 125 g ai/ha): 35 | Plant response rating, Velvetleaf ([6]; 125 g ai/ha): 0 | Plant response rating, Velvetleaf ([6]; 500 g ai/ha): 80 | Plant response rating, Canarygrass ([7]; 125 g ai/ha): 35 | Plant response rating, Blackgrass ([8]; 125 g ai/ha): 98 | Plant response rating, Barnyardgrass ([9]; 125 g ai/ha): 70 | Plant response rating, Barnyardgrass ([9]; 500 g ai/ha): 90 | Plant response rating, Windgrass ([10]; 125 g ai/ha): 20 | Plant response rating, Wheat, Winter ([11]; 31 g ai/ha): 0 | Plant response rating, Wheat, Winter ([11]; 62 g ai/ha): 0 | Plant response rating, Wheat, Winter ([11]; 125 g ai/ha): 0 | Plant response rating, Wheat, Winter ([11]; 250 g ai/ha): 20 | Plant response rating, Sunflower ([12]; 16 g ai/ha): 0 | Plant response rating, Sunflower ([12]; 31 g ai/ha): 0 | Plant response rating, Sunflower ([12]; 62 g ai/ha): 0 | Plant response rating, Sunflower ([12]; 125 g ai/ha): 0 | Plant response rating, Lambsquarters ([13]; 31 g ai/ha): 0 | Plant response rating, Lambsquarters ([13]; 62 g ai/ha): 0 | Plant response rating, Lambsquarters ([13]; 125 g ai/ha): 0 | Plant response rating, Lambsquarters ([13]; 250 g ai/ha): 35 | Plant response rating, Russian Thistle ([14]; 31 g ai/ha): 0 | Plant response rating, Russian Thistle ([14]; 62 g ai/ha): 0 | Plant response rating, Russian Thistle ([14]; 125 g ai/ha): 0

CC1(C)CC(S(=O)(=O)Cc2c(C(F)(F)F)nc3n(c2=O)CCCC3)=NO1 [Compound 8, 3-[[(4,5-dihydro-5,5-dimethyl-3-isoxazolyl)sulfonyl]methyl]-6,7,8,9-tetrahydro-2-(trifluoromethyl)-4H-pyrido[1,2-α]pyrimidin-4-one]
Plant response rating, Galium ([1]; 16 g ai/ha): 0 | Plant response rating, Galium ([1]; 31 g ai/ha): 0 | Plant response rating, Galium ([1]; 62 g ai/ha): 100 | Plant response rating, Galium ([1]; 125 g ai/ha): 100 | Plant response rating, Wheat, Spring ([2]; 16 g ai/ha): 0 | Plant response rating, Wheat, Spring ([2]; 31 g ai/ha): 0 | Plant response rating, Wheat, Spring ([2]; 62 g ai/ha): 0 | Plant response rating, Wheat, Spring ([2]; 125 g ai/ha): 0 | Plant response rating, Barley, Spring ([3]; 16 g ai/ha): 0 | Plant response rating, Barley, Spring ([3]; 31 g ai/ha): 0 | Plant response rating, Barley, Spring ([3]; 62 g ai/ha): 0 | Plant response rating, Barley, Spring ([3]; 125 g ai/ha): 0 | Plant response rating, Surinam Grass ([4]; 16 g ai/ha): 65 | Plant response rating, Surinam Grass ([4]; 31 g ai/ha): 95 | Plant response rating, Surinam Grass ([4]; 62 g ai/ha): 100 | Plant response rating, Surinam Grass ([4]; 125 g ai/ha): 100 | Plant response rating, Ragweed ([5]; 16 g ai/ha): 0 | Plant response rating, Ragweed ([5]; 31 g ai/ha): 0 | Plant response rating, Ragweed ([5]; 62 g ai/ha): 25 | Plant response rating, Ragweed ([5]; 125 g ai/ha): 60 | Plant response rating, Velvetleaf ([6]; 125 g ai/ha): 20 | Plant response rating, Velvetleaf ([6]; 500 g ai/ha): 90 | Plant response rating, Canarygrass ([7]; 16 g ai/ha): 0 | Plant response rating, Canarygrass ([7]; 31 g ai/ha): 0 | Plant response rating, Canarygrass ([7]; 62 g ai/ha): 0 | Plant response rating, Canarygrass ([7]; 125 g ai/ha): 20 | Plant response rating, Blackgrass ([8]; 16 g ai/ha): 0 | Plant response rating, Blackgrass ([8]; 31 g ai/ha): 0 | Plant response rating, Blackgrass ([8]; 62 g ai/ha): 20 | Plant response rating, Blackgrass ([8]; 125 g ai/ha): 35 | Plant response rating, Barnyardgrass ([9]; 125 g ai/ha): 90 | Plant response rating, Barnyardgrass ([9]; 500 g ai/ha): 90 | Plant response rating, Windgrass ([10]; 16 g ai/ha): 0 | Plant response rating, Windgrass ([10]; 31 g ai/ha): 0 | Plant response rating, Windgrass ([10]; 62 g ai/ha): 35 | Plant response rating, Windgrass ([10]; 125 g ai/ha): 90 | Plant response rating, Wheat, Winter ([11]; 16 g ai/ha): 0 | Plant response rating, Wheat, Winter ([11]; 31 g ai/ha): 0 | Plant response rating, Wheat, Winter ([11]; 62 g ai/ha): 0 | Plant response rating, Wheat, Winter ([11]; 125 g ai/ha): 0 | Plant response rating, Russian Thistle ([15]; 16 g ai/ha): 0 | Plant response rating, Russian Thistle ([15]; 31 g ai/ha): 0 | Plant response rating, Russian Thistle ([15]; 62 g ai/ha): 0 | Plant response rating, Russian Thistle ([15]; 125 g ai/ha): 0 | Plant response rating, Sunflower ([12]; 16 g ai/ha): 0 | Plant response rating, Sunflower ([12]; 31 g ai/ha): 15 | Plant response rating, Sunflower ([12]; 62 g ai/ha): 40 | Plant response rating, Sunflower ([12]; 125 g ai/ha): 45 | Plant response rating, Lambsquarters ([13]; 16 g ai/ha): 0 | Plant response rating, Lambsquarters ([13]; 31 g ai/ha): 0 | Plant response rating, Lambsquarters ([13]; 62 g ai/ha): 0 | Plant response rating, Lambsquarters ([13]; 125 g ai/ha): 0 | Plant response rating, Russian Thistle ([14]; 16 g ai/ha): 0 | Plant response rating, Russian Thistle ([14]; 31 g ai/ha): 0 | Plant response rating, Russian Thistle ([14]; 62 g ai/ha): 0 | Plant response rating, Russian Thistle ([14]; 125 g ai/ha): 0
